# In US12138236B2, “Compositions comprising N-Acetyl Methyl GABA and related methods” (MBI Distributing, priority 2020, dated 2024):
# “And” between values parts separate entries of the source, which are not always exact repeats. Equal entries are not always repeated.
# What was measured:
# [1] = Daytime study of N-Acetyl Methyl GABA composition without melatonin, 19 subjects (Example 6); format: in vivo, human; conditions: one value per patient (1-19), over baseline, 2 teaspoons (8 g) orally once daily, 14 days
# Experimental: The Purpose of this study was to quantify the effectiveness of N-Acetyl Methyl GABA on FAM MS (Fatigue, Anxiety, Mood, Mind, Stress) and related symptoms and qualities. (Mind refers to mental clarity, memory and focus).
# Due to the above-described effects of N-Acetyl Methyl GABA on sleep and relaxation, a sleep quality section was added to see how a “daytime” version of N-Acetyl Methyl GABA (administered without melatonin) assisted with sleep quality for daytime patients. This was also beneficial for patients that prefer not to take melatonin.
# Study participants: 19 subjects
# 7 day pre-study symptomology (no N-Acetyl Methyl GABA taken) to record a baseline of patient symptoms.
# 14 day study symptomology (taking N-Acetyl Methyl GABA) to record patient symptoms.
# Preferred subject would have minimum two of the following symptoms prior to study: FAMMS (Fatigue, Anxiety, Mood, Mind, Stress) (Mind defines mental clarity, memory and focus issues), sleep imbalance, insomnia, daytime energy issues.
# Subjects were asked to not use any additional mind/body stress relief or natural supplements other than the N-Acetyl Methyl GABA composition (“GabaSorb® Daytime”) during the 14 day study.
# Subjects were asked to take 2 teaspoons of the liquid N-Acetyl Methyl GABA composition (Gabasorb Daytime) daily in the morning or early afternoon if they suffered from two or more symptoms listed in the protocol.
# The N-Acetyl Methyl GABA composition described in Table 11 was taken orally by each patient once daily.
# Subjects were administered 2 teaspoons (8 g) of the liquid N-Acetyl Methyl GABA composition described above.
# Ratings were made each day during the study period (7 days pre-administration, 14-days during N-Acetyl Methyl GABA administration), based on a scale of 1 to 5. Improvements are shown by increased ratings over baseline in qualities such as Stress, Anxiety, Mental Clarity and Memory, Mood, Daytime Energy, and Sleep Quality for each patient in Table 12. Patient gender and age for Table 12 are as follows: Patient 1 (P1)[…], P2[…], P3[…]; P4[…], P5[…], P6[…], P7[…], P8[…], P9[…], P10[…], P11[…], P12[…], P13[…], P14:M/22, P15:F/23, P16:M/50, P17:M/19, P18:F/44, P19:F27.
# [2] = Administration of N-Acetyl Methyl GABA to other human subjects, subject reports; format: in vivo
# Experimental: Subjects report more natural sleep without the morning grogginess associated with many sleep aids. Subjects report they slept all night long without waking. […] Subjects report the mind is clear and the attitude is positive after N-Acetyl Methyl GABA was administered prior to an overnight sleep period. Without being bound by theory, this may be due to anxiolytic effects of N-Acetyl Methyl GABA.
# [3] = Single human subject's report on overnight sleep after self-administering N-Acetyl Methyl GABA (Example 2); format: in vivo; parameters: key to Sleep Quality / Restfulness/Wakefulness / Mental Clarity/Memory / Mood / Anti-inflammatory Action (decrease in pain): 1: Very Poor; 2: Poor; 3: Fair; 4: Good; 5: Excellent
# Experimental: Table 2 reports a human subject's sleep quality, restfulness/wakefulness, mental clarity/memory, mood, and inflammation and pain reduction after 18 overnight sleep periods over the span of 15 weeks (October-January, as shown in Table 2), with 15 of the 18 nights occurring before the first administration of N-Acetyl Methyl GABA to the subject. Table 3 reports the subject's sleep quality and other parameters after self-administering 300 mg of N-Acetyl Methyl GABA before an overnight sleep period, 40 times over the span of 9 weeks (November-January, as shown in Table 3). Data in Tables 2 and 3 are based on a rating of sleep quality and other parameters from 1 to 5, where 1 is Very Poor, 2 is Poor, 3 is Fair, 4 is Good, and 5 is Excellent. Each morning after waking, the subject reported on the sleep quality, restfulness/wakefulness, mental clarity/memory, mood, and inflammation and pain reduction they felt, and/or with regard to sleep quality, used information from a “Sleep Cycle” app on a cell phone (Sleep Cycle, www.sleepcycle.com, Gothenburg, Sweden).
# For 14 of the days reported in Table 2, before the first administration of N-Acetyl Methyl GABA, data is from a sleep app on a cell phone device. Other data in Table 2 is from the subject's experience as reported for a given sleep period. The data before first administration of N-Acetyl Methyl GABA provides a baseline of sleep patterns for the subject with no sleep aid. The average sleep quality in the subject before a first administration of N-Acetyl Methyl GABA was 73.8%. The average percentage of sleep quality improved after administration of N-Acetyl Methyl GABA according to this invention, with average sleep quality at 80.4%.
# [4] = average of 40 nights, scale 1 to 5, without: 2.2
# [5] = daily rating 1 to 5 after overnight sleep, 300 mg before sleep, one subject
# [6] = sum of 40 daily ratings, 300 mg
smiles,measurement,setting,value
COC(=O)CCCNC(C)=O [N-Acetyl Methyl GABA],Anxiety Reduced (%),[1],35% and 32% and 22% and 40% (2×) and 46% and 107% and 71% (2×) and 126% and 57% and 56% (2×) and 63% (3×) and 52% and 95% and 89%
same,Daytime Energy Improved (%),[1],40% and 32% and 88% (2×) and 29% and 57% and 74% and 36% and 42% and 23% and 17% and 22% (2×) and 43% and 20% and 11% and 0% and 33% (2×)
same,Mental Clarity/Memory Improved (%),[1],57% and 55% and 72% and 43% and 100% and 82% and 52% and 56% and 131% and 70% and 59% and 23% and 25% and 33% (2×) and 71% and 16% and 30% and 40%
same,Mood Improved (%),[1],20% and 94% and 39% and 68% and 100% (4×) and 120% and 152% and 88% and 129% and 107% and 85% and 65% and 60% and 69% (2×) and 112%
same,Sleep Quality Improved (%),[1],78% (2×) and 95% and 118% and 150% and 233% and 62% (2×) and 77% and 93% and 57% and 81% and 52% (3×) and 75% and 87% and 79% and 56%
same,Stress Reduced (%),[1],48% and 45% and 36% (2×) and 33% and 72% and 17% and 25% and 40% (3×) and 78% and 69% and 27% and 56% and 85% and 41% and 52% and 55%
same,"sleep quality, subjects' report",[2]; administered prior to a sleep period,improved sleep quality
same,tolerability in other human subjects,"[2]; human, in vivo",well tolerated
same,side effects reported by the subject,"[3]; 300 mg before overnight sleep, 40 times over 9 weeks",No side effects
same,"Inflammation/pain improved, percent of average score without",[3]; 2.1/1.7*100%,about 125%
same,"Mental clarity/memory improved, percent of average score without",[3]; 2.2/2.2*100%,100%
same,"Mood improved, percent of average score without",[3]; 2.5/1.9*100%,about 132%
same,"Sleep quality improved, percent of average score without",[3]; 2.5/2.2*100%,approximately 115%
same,"Restfulness/wakefulness improved, percent of average score without",[3]; 2.6/2*100%,130%
same,average sleep quality (percentage),"[3]; after administration, before first administration 73.8%, sleep app on cell phone",80.4%
same,"morning or mid-afternoon anxiety, subject report",[3]; after waking from the sleep periods,no longer feeling morning or mid-afternoon anxiety
same,"Anti-inflammatory Action (decrease in pain), average score with N-Acetyl Methyl GABA","[3]; average of 40 nights, scale 1 to 5, without: 1.7",3.8
same,"Mood, average score with N-Acetyl Methyl GABA","[3]; average of 40 nights, scale 1 to 5, without: 1.9",4.4
same,"Restfulness/Wakefulness, average score with N-Acetyl Methyl GABA","[3]; average of 40 nights, scale 1 to 5, without: 2",4.6
same,"Mental Clarity/Memory, average score with N-Acetyl Methyl GABA",[3]; [4],4.4
same,"Sleep Quality, average score with N-Acetyl Methyl GABA",[3]; [4],4.7
same,Anti-inflammatory Action (decrease in pain),[3]; [5],3 and 4 and 2 and 5
same,Mental Clarity/Memory,[3]; [5],3 and 4 and 5
same,Mood,[3]; [5],3 and 4 and 5
same,Restfulness/Wakefulness,[3]; [5],3 and 4 and 5
same,Sleep Quality,"[3]; daily rating 1 to 5 after overnight sleep, 300 mg self-administered before sleep, one subject",4 and 5
same,"Anti-inflammatory Action (decrease in pain), Total Score, 40 days",[3]; [6],153
same,"Mental Clarity/Memory, Total Score, 40 days",[3]; [6],177
same,"Mood, Total Score, 40 days",[3]; [6],176
same,"Restfulness/Wakefulness, Total Score, 40 days",[3]; [6],183
same,"Sleep Quality, Total Score, 40 days",[3]; [6],190
